Experimental data: patent US7731856B2, “Method and system for treating waste matter from animals, urea-rich and urea-lean waste-matter products, and uses thereof” (Waste 2 Green, LLC, priority 2003, dated 2010)
Like-named read-outs stand apart in the source and are kept apart here.

Assays:
urease [1] = target: urease (Canavalia ensiformis, UniProt P07374)
Description: This can simply be studied by addition of 30 ml of methanal to the urease-contaminated and Cu^2+-contaminated reference system.
This is simple studied by addition of 30 ml methanal to the reference system contaminated with urease, Ag^+- or Pb^2+-ions.

[2] = tested on: urease activity from natural animal faeces; experiment: stable experiment: collected liquid manure and faeces with inhibitor, hyperfiltration, polymerisation with methanal; parameters: species or system pigs; settings: for polymerisation of concentrated livestock-produced urea with methanal: 50 ml of hyperfiltration concentrate plus 30 ml methanal
Description: Below a stable floor supporting 20 pigs to be slaughtered a large plastic foil covering the underlying floor having the shape of an inverted pyramid was placed. […] The liquid manure and faeces of the animals were collected on this foil for the next 24 hours. From this foil 20 l sample was collected (and separated) and treated in a hyperfiltration system of the type ROMEDI-250 supplied by UNION-filtration a/s, Nakskov, Denmark. The separation process was continued until a total of 15 l permeate liquid—water was withdrawn. The urea-lean fraction was disposed.

urease EC 3.5.1.5 = urease EC 3.5.1.5 (Canavalia ensiformis, UniProt P07374)
Description: For this example, a colourless urea reference system is defined by the following mixture: in a conical flask 10 g of synthetic urea is diluted with water to 50 ml, three drops of the acid-base indicator phenolphthalein is added.

urease [3] = tested on: urease
[4] = 30 ml methanal (24% by weight) added to urease-contaminated urea system containing the inhibitor

urease (Canavalia ensiformis, UniProt P07374), sequence (P07374 whole entry, looked up): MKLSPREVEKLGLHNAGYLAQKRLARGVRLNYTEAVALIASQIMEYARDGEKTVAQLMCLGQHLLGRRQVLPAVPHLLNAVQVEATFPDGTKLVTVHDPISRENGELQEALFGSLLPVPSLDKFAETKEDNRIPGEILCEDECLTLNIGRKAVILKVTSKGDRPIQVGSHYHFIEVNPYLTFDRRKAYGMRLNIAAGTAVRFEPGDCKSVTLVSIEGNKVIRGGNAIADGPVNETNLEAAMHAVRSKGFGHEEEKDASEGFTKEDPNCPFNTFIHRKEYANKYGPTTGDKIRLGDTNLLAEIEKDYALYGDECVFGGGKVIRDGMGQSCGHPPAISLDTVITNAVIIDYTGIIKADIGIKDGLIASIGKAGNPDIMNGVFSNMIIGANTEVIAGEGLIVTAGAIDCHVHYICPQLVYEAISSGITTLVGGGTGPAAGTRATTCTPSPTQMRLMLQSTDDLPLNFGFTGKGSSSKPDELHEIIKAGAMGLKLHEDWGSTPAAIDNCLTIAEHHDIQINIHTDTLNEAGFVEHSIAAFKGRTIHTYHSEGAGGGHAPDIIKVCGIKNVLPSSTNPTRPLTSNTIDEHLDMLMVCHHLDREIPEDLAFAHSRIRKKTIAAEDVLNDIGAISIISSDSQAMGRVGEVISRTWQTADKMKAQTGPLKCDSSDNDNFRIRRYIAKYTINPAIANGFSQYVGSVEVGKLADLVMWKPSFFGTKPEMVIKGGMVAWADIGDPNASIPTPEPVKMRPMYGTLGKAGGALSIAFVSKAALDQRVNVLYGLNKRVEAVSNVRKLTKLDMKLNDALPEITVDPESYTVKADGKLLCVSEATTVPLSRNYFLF
urease EC 3.5.1.5, sequence (P07374 whole entry, looked up): as above

## CC(=NO)C(C)=NO [dimethylglyoxime]
Urease [1]; [4]
  formation of urea formaldehyde plastic in spite of urease contamination: it is possible to form the urea formaldehyde plastic
[2]
  polymerisation of concentrated livestock-produced urea with methanal: can be reproduced

## NCCN [ethylenediamine]
Urease [1]
  formation of urea formaldehyde plastic in spite of urease contamination: it is possible to form the urea formaldehyde plastic
[2]
  polymerisation of concentrated livestock-produced urea with methanal: can be reproduced

## CC(=O)[O-].CC(=O)[O-].[Pb+2] [lead acetate]
[2]
  polymerisation of concentrated livestock-produced urea with methanal: can be reproduced

## O=[N+]([O-])[O-].[Ag+] [silver nitrate]
Urease [1]; [4]
  formation of urea formaldehyde plastic in spite of urease contamination: it is possible to form the urea formaldehyde plastic
Urease EC 3.5.1.5; 1 g inhibitor added to 10 g urea in 50 ml water, then 1 ml urease (540 units per ml), system also does not begin to smell of ammonia
  colour shift of phenolphthalein into red (ammonia formation by urea hydrolysis): the colour shift of phenolphthalein does not occur
Urease EC 3.5.1.5; ions present in the urinal system
  catalytic effect of the urease enzyme on the hydrolysis of urea: completely lost
[2]
  polymerisation of concentrated livestock-produced urea with methanal: can be reproduced

## NC(N)=O [urea]
Urease [3]; pH 5.5, pig manure system
  Km: ~1000 µM
  νm: approximately 2×10^−3 mol/dm^3/min
Urease [3]; pH 7, similar manure system
  Km: ~4000 µM
  νm: approximately 11×10^−3 mol/dm^3/min

## copper sulphate, pentahydrate
[2]; 5 l water and 10 g copper sulphate, pentahydrate below stable floor, 20 pigs, 24 hours collection
  urease activity in manure system: remove the urease activity
[2]
  polymerisation of concentrated livestock-produced urea with methanal: the polymerisation proceeded
